Measurements as given in US20250289809A1, “COMPOUNDS USEFUL FOR GOUT” (ATOM BIOSCIENCE AMERICA CORPORATION, priority 2022, published 2025).

Key:
[1] = system: potassium oxonate -induced hyperuricemic rats; assay: Serum uric acid level in potassium oxonate-induced hyperuricemic rats after 3-day administration; assay type: in vivo, Sprague Dawley (SD) rats; conditions: for Uric acid: serum, mean ± SD, n=6; for Effect on serum uric acid level after modeling, compared with the model group at the same time point: 2 mg/kg gavage, hyperuricemic rats, result in words
Excerpt: Compound 30 and 32 were light yellow powders and triturated with 0.5% CMC-Na just prior to use to prepare suspensions having a corresponding concentration for gavage.
Febuxostat, purchased from Sigma, was triturated with 0.5% CMC-Na just prior to use to prepare a suspension having a corresponding concentration for gavage.
Sprague Dawley (SD) rats, SPF grade, 30, male, weighing 230-250 g, purchased from Shanghai SLAC Laboratory Animal Co., Ltd., permission number: SCXK (hu) 2022-0004, quality certification number: 20220004017238.
Uric acid assay kit (phosphotungstic acid reduction method), batch number: 20230224, purchased from NanJing Jiancheng Bioengineering Institute; Potassium oxonate, article number: 00164, batch number: T6GKM-TA, purchased from Tokyo Chemical Industry Co., Ltd., Japan (TCI); carboxymethyl cellulose sodium (CMC-Na), batch number: 20170810, chemically pure, purchased from Sinopharm chemical reagent Co., Ltd.
30 male SD rats weighed approximately 220-240 g after one week of adaptation. They were randomly divided into 5 groups according to the body weight, with 6 rats in each group, namely: (1) normal group (0.5% CMC-Na), (2) model group (0.5% CMC-Na), (3) Febuxostat, 2 mg/kg, (4) compound 30, 2 mg/kg and (5) compound 32, 2 mg/kg. The drugs in each group were prepared into a corresponding concentration suspension, and the administration volume was 0.5 mL/100 g.
After the rats in each group were purchased and adapted to feeding, they were fasted for 12 h, and intraperitoneally injected with potassium oxonate at a dose of 300 mg/kg to establish a model. 0.5 h after modeling, each test drug group was subjected to gavage administration once. The drug was administered continuously for 3 days. On day 3, blood samples were collected from the retro-orbital venous plexus before and 1, 3 and 5 h after injection of potassium oxonate. The samples were centrifuged at 3500 rpm for 10 min, and 30 μL of serum was collected to measure the uric acid level at each time point.
The measurement data of each test were expressed as (mean)±(standard deviation). The comparison between groups used ANOVA-Dunnett T test to examine the significance. P<0.05 was used as the significance index, and P<0.01 was used as the extremely significant index.

[2] = In vivo pharmacokinetic experiments in SD rats (oral and intravenous); conditions: male, Sprague-Dawley (SD), rat, plasma
Method: Preparation of compound stock solution: An appropriate amount of compound solid powder was be weighed and added in a certain amount of DMSO, and vortex ultrasound to obtain a 10 mg/mL stock solution.
(§1) Preparation of test compound for gavage: respectively taking an appropriate amount of the compound stock solution, adding a certain amount of Solutol HS15 solution, vortexing for 1 minute, then adding a certain amount of physiological saline, and fully mixing to obtain a 1 mg/mL solution.
as §1, with “for intravenous injection:” for “for gavage:”, “mixing until uniform, so as” for “mixing”, “a 0.5” for “a 1”
SD rats, male, SPF grade, 6-8 weeks old, purchased from JH Laboratory Animal Co. LTD. Permission number: SCXK (SH) 2022-0009, certification number: 20220009004139.
The experimental animals were fasted overnight before gavage administration, and were given food 4 hours after administration, with free access to water. Each test compound was divided into two groups, namely, intravenous administration group and oral administration group.
Blood samples (150 μL/sample) were collected from the jugular vein of SD rats before administration and at 5 min (only intravenous administration group), 15 min, 30 min, 1 h, 2 h, 4 h, 8 h and 24 h after administration, respectively. The samples were placed in centrifuge tubes containing anticoagulant sodium heparin and centrifuged at 4° C., 2000 g for 5 minutes to separate plasma. The plasma samples were analyzed by LC/MS/MS to detect the concentration of each test compound.
Non-compartmental model-related parameters were calculated by WinNonlin® Professional software.

[3] = 0 h (before potassium oxonate injection on day 3), 2 mg/kg gavage once daily for 3 days
[4] = 1 h after potassium oxonate 300 mg/kg i.p. on day 3, 2 mg/kg gavage for 3 days
[5] = 3 h after potassium oxonate 300 mg/kg i.p. on day 3, 2 mg/kg gavage for 3 days
[6] = 5 h after potassium oxonate 300 mg/kg i.p. on day 3, 2 mg/kg gavage for 3 days
[7] = Intravenous injection administration - 1 mg/kg
[8] = po, Gavage administration - 10 mg/kg

AUC(0-inf) [2, 7] [ng·h/mL] | Cmax [2, 7] [ng/mL] | MRT inf [2, 7] [h] | Tmax [2, 7] [h] | half-life [2, 7] [h] | AUC(0-inf) [2, 8] [ng·h/mL] | Cmax [2, 8] [ng/mL] | MRT inf [2, 8] [h] | Tmax [2, 8] [h] | half-life [2, 8] [h] | Compound | Uric acid [1, 3] [µmol/L] | Effect on serum uric acid level after modeling, compared with the model group at the same time point [1] | Uric acid [1, 4] [µmol/L] | Uric acid [1, 5] [µmol/L] | Uric acid [1, 6] [µmol/L]
– | – | – | – | – | – | – | – | – | – | Cc1nc(-c2ccc(OCC(C)C)c(C#N)c2)sc1C(=O)O [Febuxostat, reference compound] | 39.2 ± 6.2 | significantly reduce | 34.4 ± 7.1 | 31.2 ± 7.6 | 24.7 ± 4.7
1100 | 1860 | 3.69 | 0.083 | 7.72 | 12400 | 4670 | 4.22 | 0.25 | 3.44 | CCOC(=O)OC(C)OC(=O)c1cnn(-c2ccc3c(c2)c(C#N)cn3C(C)C)c1 (stereo not shown) [compound 11, {1-[(ethoxycarbonyl)oxy]}ethyl 1-(3-cyano-1-isopropyl-1H-indol-5-yl)-1H-pyrazole-4-carboxylate] | – | – | – | – | –
– | – | – | – | – | – | – | – | – | – | CC(C)n1cc(C#N)c2cc(-n3cc(C(=O)OCCCCO[N+](=O)[O-])cn3)ccc21 [compound 30, [4-(nitrooxy)]butyl 1-(3-cyano-1-isopropyl-1H-indol-5-yl)-1H-pyrazole-4-carboxylate] | 45.0 ± 8.4 | significantly reduce | 70.0 ± 14.8 | 94.2 ± 22.7 | 72.2 ± 11.4
– | – | – | – | – | – | – | – | – | – | CC(C)n1cc(C#N)c2cc(-n3cc(C(=O)Oc4cccc(CO[N+](=O)[O-])c4)cn3)ccc21 [compound 32, phenyl [3-(nitrooxy)methyl] 1-(3-cyano-1-isopropyl-1H-indol-5-yl)-1H-pyrazole-4-carboxylate] | 49.1 ± 6.7 | significantly reduce | 68.9 ± 15.8 | 82.2 ± 23.3 | 65.8 ± 13.6
